Series [1] is described as follows: Maximum concentration in plasma was reported at 0.5 hour. The format is ADME, organism-based. The note with it: read-out: CPmax.
Series [2] concerns the target Coagulation factor X (Bos taurus, UniProt P00743). Nature of the series: In vitro evaluation of inhibitory activity against Coagulation factor X in prothrombinase complex.
The target in series [3] is Serine protease 1 (Homo sapiens, UniProt P07477). Nature of the series: In vitro evaluation of inhibitory activity against trypsin.
The target of series [4] is Prothrombin (Homo sapiens, UniProt P00734). Nature of the series: In vitro evaluation of inhibitory activity against Coagulation factor II in prothrombinase complex.
Series [5] can be described thus: pKa value was determined. The format is physicochemical.
A short description of series [6]: Ratio of inhibitory activity against Plasmin to that of factor Xa.
The nature of series [7]: Ratio of inhibitory activity against activated protein C to that of factor Xa.
Series [8] can be described thus: Ratio of inhibitory activity against plasminogen activator to that of factor Xa.
Series [9] in a line: Ratio inhibitory activity against coagulation factor IIa to that of factor Xa.
Series [10] is described as follows: Ratio of inhibitory activity against […] to that of factor Xa.
Series [11] can be described thus: Maximum concentration in plasma was reported at 2 hour. The series is classed as ADME, organism-based. The note with it: read-out: CPmax.

Sequence of Serine protease 1 (P07477 whole entry): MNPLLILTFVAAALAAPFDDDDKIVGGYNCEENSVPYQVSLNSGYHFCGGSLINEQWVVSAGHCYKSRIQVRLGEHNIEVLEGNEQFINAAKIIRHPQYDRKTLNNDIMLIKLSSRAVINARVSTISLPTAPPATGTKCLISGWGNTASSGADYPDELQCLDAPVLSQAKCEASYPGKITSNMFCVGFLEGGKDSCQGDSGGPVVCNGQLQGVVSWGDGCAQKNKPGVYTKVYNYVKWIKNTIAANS
Sequence of Coagulation factor X (P00743 41-180 limits assumed): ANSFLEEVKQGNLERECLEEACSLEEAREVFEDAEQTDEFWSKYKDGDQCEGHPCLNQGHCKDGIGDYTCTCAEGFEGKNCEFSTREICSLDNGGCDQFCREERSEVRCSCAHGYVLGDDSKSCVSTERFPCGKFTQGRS
Sequence of Coagulation factor X (P00743 234-492 limits assumed): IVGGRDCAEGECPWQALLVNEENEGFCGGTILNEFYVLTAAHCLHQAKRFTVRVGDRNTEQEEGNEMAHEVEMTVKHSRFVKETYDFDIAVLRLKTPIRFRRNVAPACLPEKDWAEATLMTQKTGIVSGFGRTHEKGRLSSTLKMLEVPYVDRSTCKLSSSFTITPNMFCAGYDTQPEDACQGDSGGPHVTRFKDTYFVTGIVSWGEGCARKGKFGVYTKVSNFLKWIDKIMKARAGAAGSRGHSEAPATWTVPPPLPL

On to `COc1ccc2ccc(S(=O)(=O)N(C)[C@H]3CCN(Cc4csc(C(=N)N)c4)C3=O)cc2c1`, for which the Cmax in [1] is 3100 nM.

For `COc1ccc2ccc(S(=O)(=O)NC3CCN(Cc4cc5c(N)nccc5s4)C3=O)cc2c1` (stereo not drawn), the Ki in series [2] was 250 nM; in series [3] it was above 2900 nM; in [4], around 4000 nM.

In the case of `COc1ccc2ccc(S(=O)(=O)N[C@H]3CCN(Cc4ccc5ccnc(Cl)c5c4)C3=O)cc2c1`, the Ki in series [2] was above 1200 nM.

`COc1ccc2ccc(S(=O)(=O)N(C)[C@H]3CCN(Cc4ccc5ncnc(N)c5c4)C3=O)cc2c1` came in with a pKa in [5] of 5.3. The Ki in [2] was 1600 nM; in series [3], above 2900 nM; in series [4] it was above 4000 nM.

With `COc1ccc2ccc(S(=O)(=O)NC3CCN(Cc4ccc5nc(N)ccc5c4)C3=O)cc2c1` (stereo not drawn), the pKa in series [5] worked out at 7.3. For the same molecule, the inhibition constant (Ki) in series [2] is 1200 nM; in [3], above 2900 nM; in [4], above 4000 nM.

For `COc1ccc2ccc(S(=O)(=O)N[C@H]3CCN(Cc4ccc5ccnc(O)c5c4)C3=O)cc2c1`, the Ki in series [2] is above 1200 nM.

Take `COc1ccc2ccc(S(=O)(=O)N[C@H]3CCN(Cc4cc5c(N)nccc5cc4OC)C3=O)cc2c1`: in series [2], the affinity corresponds to a Ki of 890 nM.

In the case of `COc1ccc2ccc(S(=O)(=O)NC3CCN(Cc4ccc5ccc(N)nc5c4)C3=O)cc2c1` (stereo not drawn), the pKa in series [5] is 7.3. The Ki in series [2] is 370 nM; in [3], above 2900 nM; in [4] it was around 4000 nM.

For the molecule `N=C(N)c1cccc(CN2CC[C@H](NS(=O)(=O)c3cc4ncccc4s3)C2=O)c1`, the Ratio in series [6] was above 280; in [7], 440; in series [8], above 335; in [9], above 150; in series [10], above 110. The same molecule showed a Ki in [2] of 26 nM.

In series [2], `COc1ccc2ccc(S(=O)(=O)N[C@H]3CCN(Cc4cc(C(=N)N)ccc4N)C3=O)cc2c1` showed a Ki of 6 nM. This counts as single-digit nanomolar.

For the molecule `COc1ccc2ccc(S(=O)(=O)N[C@H]3CCN(Cc4cc5c(N)nccc5cc4N)C3=O)cc2c1`, the affinity in series [2] corresponds to a Ki of 80 nM.

As to `Nc1nccc2ccc(CN3CC[C@H](NS(=O)(=O)c4cc5ncccc5s4)C3=O)cc12`, the Ratio is above 330 in [6]; above 841 in series [7]; above 395 in [8]; above 181 in series [9]; above 131 in series [10]. For the same molecule, the Cmax in series [11] came out at 2700 nM.

In [5], `COc1ccc2ccc(S(=O)(=O)N[C@H]3CCN(Cc4ccc5ccnc(N)c5c4)C3=O)cc2c1` yielded a pKa of 7.6. The figures for the Ki in series [3] and in [4] were above 2900 nM and 1350 nM, respectively.

Consider `COc1ccc2ccc(S(=O)(=O)N[C@H]3CCN(Cc4cccc(C(=N)N)c4)C3=O)cc2c1`, for which, in series [5], the pKa was 11.6. The molecule also gave a Ki in [3] of 850 nM.

One may read the Ki as the equilibrium dissociation constant of an inhibitor or competing ligand from its target. A word on the pKa: it is the pH at which an ionisable group is half protonated. A lower pKa goes with a group that gives up its proton readily.

For the origin of these results see ChEMBL document CHEMBL1132509, “Aminoisoquinolines: design and synthesis of an orally active benzamidine isostere for the inhibition of factor XA” (Bioorg Med Chem Lett, 1999).
